Data published in US8772251B2, “Use of isothiocyanate derivatives as anti-myeloma agents” (Indena S.p.A., priority 2008, dated 2014).
Where two headings read alike, the source gives them in different places.

Columns and labels:
[1] = test system: human myeloma tumor cell lines s.c. transplanted; test: Antitumor activity in vivo in SCID mice bearing s.c. transplanted human myeloma
From the text: In the table 3 is reported the antitumor activity of the GMG-ITC administered in vivo in SCID mice bearing human myeloma tumor cell lines s.c. transplanted.

[2] = test system: H460 human lung tumor cell line; test: Sensitivity of H460 cells to glucomoringin with or without myrosinase (cell growth relative to control); type: cell-based; conditions: GMG 100 μM, no MYR
HCT116 p53−/− = test: Cytotoxic activity, cell count (24 h); type: cell-based; conditions: Homo sapiens, read-out: Cell count (24 h) IC50
From the text: (§1) Cytotoxic activity of the Moringa derived isothiocyanate (GMG-ITC) on a panel of human tumor cell lines.

HCT116 p53+/+ = test: Cytotoxic activity, cell count (24 h); type: cell-based; conditions: Homo sapiens, read-out: Cell count (24 h) IC50
From the text: as §1

H460 wt = test: Cytotoxic activity, cell count (24 h); type: cell-based; conditions: Homo sapiens, read-out: Cell count (24 h) IC50
From the text: as §1

H460 S5 = test: Cytotoxic activity, cell count (24 h); type: cell-based; conditions: Homo sapiens, read-out: Cell count (24 h) IC50
From the text: as §1

HL60 = test: Cytotoxic activity, cell count (24 h); type: cell-based; conditions: Homo sapiens, read-out: Cell count (24 h) IC50
From the text: as §1

MCF7 NEO = test: Cytotoxic activity, cell count (24 h); type: cell-based; conditions: Homo sapiens, read-out: Cell count (24 h) IC50
From the text: as §1

RPMI-8226 = test: Cytotoxic activity, cell count (24 h); type: cell-based; conditions: Homo sapiens, read-out: Cell count (24 h) IC50
From the text: as §1

MCF7 π = test: Cytotoxic activity, cell count (24 h); type: cell-based; conditions: Homo sapiens, read-out: Cell count (24 h) IC50
From the text: as §1

A2780 = test: Cytotoxic activity, cell count (24 h); type: cell-based
From the text: as §1

[3] = test system: human ovarian carcinoma A2780; test: Antitumor activity in vivo against human ovarian carcinoma A2780

With C[C@@H]1O[C@@H](Oc2ccc(C/C(=N/OS(=O)(=O)O)S[C@@H]3O[C@H](CO)[C@@H](O)[C@H](O)[C@H]3O)cc2)[C@H](O)[C@H](O)[C@H]1O [GMG, glucomoringin] as the molecule, how does the TWI % ([1]; p.o. q5dx2, 400 mg/kg/inj.) read?
The TWI % was 62%.

What about the “% of cells growth relative to control” value ([2]; 24 h recovery) of the same molecule?
Its value is 100%.

What about the “% of cells growth relative to control” value ([2]; 24 h treatment) of the same molecule?
The value was 98%.

What about the “% of cells growth relative to control” value ([2]; 48 h recovery) of the same molecule?
The value was 100%.

And the “% of cells growth relative to control” value ([2]; time 0)?
The value was 100%.

C[S+]([O-])CCCCN=C=S (centres unmarked) [GRA, sulphorafane, reference compound] was tested. Which IC50 (HCT116 p53−/−; HCT-116, HCT116 p53−/−, 24 h) did it give?
The IC50 was 18 ± 5.3 µM.

What about the IC50 (HCT116 p53+/+; HCT-116, HCT116 p53+/+, 24 h) of the same molecule?
Its IC50 is 17 ± 2.3 µM.

What about the IC50 (H460 wt; NCI-H460, H460 wt, 24 h) of the same molecule?
The IC50 was 29 ± 0.5 µM.

And the IC50 (H460 S5; NCI-H460, H460 S5, 24 h)?
Its IC50 is 19 ± 1 µM.

What about the IC50 (HL60; HL-60, HL60, 24 h) of the same molecule?
Its IC50 is 16 ± 1 µM.

And the IC50 (MCF7 NEO; MCF7 NEO, 24 h)?
The IC50 was 26 ± 4 µM.

And the IC50 (RPMI-8226; RPMI-8226 (myeloma), 24 h)?
Its IC50 is 8 ± 0.2 µM.

And the IC50 (MCF7 π; MCF7 π, 24 h)?
The IC50 was 27 ± 4 µM.

And the IC50 (A2780; Homo sapiens, A2780, 24 h; read-out: Cell count (24 h) IC50)?
The IC50 was 18 ± 1 µM.

CC1OC(Oc2ccc(CN=C=S)cc2)C(O)C(O)C1O (centres unmarked) [GMG-ITC] was tested. Which IC50 (HCT116 p53−/−; HCT-116, 24 h) did it give?
Its IC50 is 13 ± 0.25 µM.

And the IC50 (HCT116 p53+/+; HCT-116, 24 h)?
Its IC50 is 12 ± 0.3 µM.

What about the IC50 (H460 wt; NCI-H460, 24 h) of the same molecule?
The IC50 was 29 ± 0.8 µM.

And the IC50 (H460 S5; NCI-H460, 24 h)?
The IC50 was 18 ± 6.7 µM.

And the IC50 (HL60; HL-60, 24 h)?
Its IC50 is 15 ± 1 µM.

And the IC50 (MCF7 NEO; MCF7, 24 h)?
The IC50 was 20 ± 4.4 µM.

What about the IC50 (RPMI-8226; RPMI-8226, 24 h) of the same molecule?
The IC50 was 6 ± 1 µM.

And the IC50 (MCF7 π; MCF7, 24 h)?
The IC50 was 21 ± 5.7 µM.

And the IC50 (A2780; Homo sapiens, A2780, 24 h, read-out: Cell count (24 h) IC50)?
The IC50 was 15 ± 3 µM.

And the antitumor activity [3]?
Its antitumor activity is “low”.

And the TWI % ([3]; i.p. q5dx2w, 20 mg/kg/inj.)?
Its TWI % is 46%.

What about the TWI % ([1]; i.p. q5dx2w, 20 mg/kg/inj.) of the same molecule?
Its TWI % is 70%.
